Results taken from patent US20240334934A1, “FUNGICIDE MIXTURE” (priority 2021, published 2024).
Where two headings read alike, the source gives them in different places.

Experiments:
Microdochium nivale = assay: Efficacy of mixtures of streptimidone and CtmC, liquid culture in PDB, optical density 620 nm; assay type: cell-based; settings: read-out: % Efficacy
[1] = test system: a variety of fungal strains; settings: statement of WO2015191789, cited from earlier work
[2] = test system: Zymoseptoria tritici K6420; assay: Efficacy of mixtures of streptimidone and CtmC, liquid culture in PDB, optical density 620 nm; assay type: cell-based; settings: K6420, read-out: % Efficacy
[3] = test system: Pyrenophora tritici-repentis K6186; assay: Efficacy of purified CtmC alone in-vitro, 96 well plate, OD 620 nm; assay type: cell-based; settings: CtmC 10 ppm, mycelium inoculum
Experimental: CtmC was dissolved in DMSO (Dimethylsulfoxid) to a final concentration of 1000 ppm to create a stock solution. A second dilutions of 1:10 was made in water+0.025% Tween 20. From this second dilution 10 μl are dispensed into a 96 well plate. […] All wells containing CtmC also contain DMSO (1%) and Tween 20 (0.0025%). In the following table 4 some of the species were tested using several distinct isolates (internal strain number indicated) to understand variability among different isolates of the same species sampled in different locations, producing different mycotoxins (genus Fusarium), or expressing various tolerances to fungicides of the SDHI (Succinate Dehydrogenase Inhibitor), SBI (Sterol Biosynthesis Inhibitors) and/or QoI (quinone outside inhibitors) classes (example: Zymoseptoria tritici). Different isolates had variable inoculum density and number of biological repicas, as indicated.

[4] = test system: Fusarium virguliforme isolate 1; assay: Efficacy of purified CtmC, 96-well growth assay, IC50 from OD620; assay type: cell-based
Experimental: (§1) A Fusarium virguliforme spore suspension of 25′000 spores/ml was produced in PDB (potato dextrose broth) medium supplemented with 0.3% agar. Isolates of the species originate from Syngenta internal collection (CH).
(§2) CtmC was dissolved in DMSO (Dimethylsulfoxid) to a final concentration of 1000 ppm to create a stock solution. Different dilutions of CtmC were created in DMSO: 1000 ppm, 330 ppm, 110 ppm, 37 ppm, 12 ppm and 4.1 ppm. 10 μl of DMSO or CtmC solution were transferred to a 96-well-dilution plate and diluted 10-fold with 90 μl 0.025% Tween 20/1H2O solution. Out of the dilution plate, 10 μl were transferred to a 96 well assay plate and 90 μl spore suspension were added to each well.
(§3) 96 Well plates were then incubated for 72 h at 24° C., 90% relative humidity in the dark. Plates were evaluated by reading the OD at 620 nm.
(§4) Assays were run on two independent isolates for the species. Each isolate was tested twice (assay 1 and assay 2) and each isolate x fungicide rate combination was duplicated on the test plates.
(§5) The OD620 was averaged over the two wells and used to calculate IC50 values (fungicide concentration resulting in 50% inhibition of growth) with the program GraphPad prism, resulting in 4 independent IC50 values. No significant differences were found between both isolates tested: […]

[5] = test system: Fusarium virguliforme isolate 2; assay: as above; assay type: cell-based
Experimental: as §1, §2, §3, §4, §5

Botrytis cinerea = assay: Efficacy of purified CtmC in-vitro, microtiter plate growth inhibition; assay type: cell-based; settings: rate 10 ppm; 72 hrs at 24° C.
Experimental: CtmC was dissolved in DMSO (Dimethylsulfoxid) to a final concentration of 1000 ppm to create a stock solution. A second dilutions of 1:10 was made in water+0.025% Tween 20. From this second dilution 10 μl are dispensed into a 96-well plate. To each well, 90 μl of medium with fungal spores are added and mixed, resulting in final CtmC concentrations of 10 ppm. All wells containing CtmC also contain DMSO (1%) and Tween 20 (0.0025%).
Botrytis cinerea (gray mould): Conidia of the fungus from cryogenic storage were directly mixed into nutrient broth (PDB potato dextrose broth). After placing a solution of the test compounds into a microtiter plate (96-well format) the nutrient broth containing the fungal spores was added.

[6] = test system: Gibberella zeae (Fusarium graminearum); assay: microbe, parasite or virus in culture; assay type: cell-based; settings: read-out: % Efficacy
genus Bacillus = settings: statement of WO2015191789, Table 6; cited from earlier work
Gibberella zeae K6934 = assay type: cell-based; settings: CtmC 10 ppm
Tilletia tritici K5212 = assay: Efficacy of purified CtmC alone in-vitro, 96 well plate, OD 620 nm; assay type: cell-based; settings: CtmC 10 ppm
[7] = test system: Monographella nivalis K7484; assay: as above; assay type: cell-based; settings: CtmC 10 ppm
Experimental: (§6) CtmC was dissolved in DMSO (Dimethylsulfoxid) to a final concentration of 1000 ppm to create a stock solution. A second dilutions of 1:10 was made in water+0.025% Tween 20. From this second dilution 10 μl are dispensed into a 96 well plate. To each well, 90 μl of medium (PDB—potato dextrose broth, plus 0.3% agar) with fungal spores are added and mixed, resulting in final CtmC concentrations of 10 ppm. All wells containing CtmC also contain DMSO (1%) and Tween 20 (0.0025%). In the following table 4 some of the species were tested using several distinct isolates (internal strain number indicated) to understand variability among different isolates of the same species sampled in different locations, producing different mycotoxins (genus Fusarium), or expressing various tolerances to fungicides of the SDHI (Succinate Dehydrogenase Inhibitor), SBI (Sterol Biosynthesis Inhibitors) and/or QoI (quinone outside inhibitors) classes (example: Zymoseptoria tritici). Different isolates had variable inoculum density and number of biological repicas, as indicated.

[8] = test system: Colletotrichum orbiculare K5770; assay: as above; assay type: cell-based; settings: CtmC 10 ppm
Experimental: as §6

[9] = test system: Venturia inaequalis K6222; assay: as above; assay type: cell-based; settings: CtmC 10 ppm
Experimental: as §6

Fusarium avenaceum K6940 = assay: as above; assay type: cell-based; settings: CtmC 10 ppm
Experimental: as §6

[10] = test system: Zymoseptoria tritici K6105; assay: Efficacy of mixtures of streptimidone and CtmC, liquid culture in PDB, optical density 620 nm; assay type: cell-based
[11] = 72 h at 24° C., 25'000 spores/ml

For `C=C1NC(=O)CNC(=O)[C@H](CCCCN)NC(=O)[C@@]2(C)NC(=O)/C(=C/C)NC(=O)[C@H]3CSC(=N3)[C@@H](CC(N)=O)CC(=O)c3ccc(nc3[C@@H](C)NC(=O)[C@@H]3CCCN3C1=O)-c1nc(cs1)C1=N[C@H](CS1)C(=O)NC(=C)c1nc(cs1)-c1nc(cs1)C1=N[C@@H](CS1)C(=O)N[C@@H](C(=O)O)CS2` [CtmC, cyclothiazomycin C], the Emax at 0.0333 ppm (Microdochium nivale) is listed as 19%, the Emax at 0.1 ppm (Microdochium nivale) is listed as 42% and the “growth inhibitory action toward a variety of fungal strains” value ([1]; listed as Cyclothiazomycin C) is listed as “no fungal inhibitory action”. For the same molecule, the “growth inhibitory action toward a variety of fungal strains” value ([1]; listed as cyclothiazomycin C) was “none was observed”, the Emax at 0.0556 ppm [2] was 0% and the Emax at 0.1667 ppm [2] was 23%. The Emax at 0.5 ppm [2] was 47%, the “efficacy (%)” value [3] was 90% and the “optical density at 620 nm” value ([3]; blank 0.046, untreated 0.508) was 0.094. For the same molecule, the “IC50 (ppm) Assay-1” value [4, 11] was 0.8 ppm, the “IC50 (ppm) Assay-2” value [4, 11] was 1.6 ppm and the “IC50 (ppm) average” value ([4]; average of Assay-1 and Assay-2) was 1.2 ppm. The IC50 ([4]; both tested isolates) was “ca. 1 ppm”, the “IC50 (ppm) Assay-1” value [5, 11] was 0.7 ppm and the “IC50 (ppm) Assay-2” value [5, 11] was 1.5 ppm. The “IC50 (ppm) average” value ([5]; average of Assay-1 and Assay-2) was 1.1 ppm, the IC50 ([5]; both tested isolates) was “ca. 1 ppm” and the “control of fungal growth (%)” value (Botrytis cinerea) was 90%. For the same molecule, the Emax at 20 ppm [6] was 37%, the inhibitory activity (genus Bacillus) was “greatest inhibitory activity” and the “efficacy (%)” value (Gibberella zeae K6934) was 48%. For the same molecule, the “optical density at 620 nm” value (Gibberella zeae K6934; blank 0.052, untreated 0.641) was 0.361, the “efficacy (%)” value (Tilletia tritici K5212) was 96% and the “optical density at 620 nm” value (Tilletia tritici K5212; blank 0.046, untreated 0.451) was 0.062. For the same molecule, the “efficacy (%)” value [7] was 90%, the “optical density at 620 nm” value ([7]; blank 0.054, untreated 0.233) was 0.073 and the “efficacy (%)” value [8] was 56%. For the same molecule, the “optical density at 620 nm” value ([8]; blank 0.035, untreated 0.449) was 0.218, the “efficacy (%)” value [9] was 86% and the “optical density at 620 nm” value ([9]; blank 0.044, untreated 0.320) was 0.082. For the same molecule, the “efficacy (%)” value (Fusarium avenaceum K6940) was 52%, the “optical density at 620 nm” value (Fusarium avenaceum K6940; blank 0.054, untreated 0.410) was 0.225 and the Emax at 0.0556 ppm ([10]; K6105, read-out: % Efficacy, CtmC 0.0556 ppm alone (Streptimidone 0), lower sub-table) was 0%. For the same molecule, the Emax at 0.0556 ppm ([10]; K6105, read-out: % Efficacy, CtmC 0.0556 ppm alone (Streptimidone 0), upper sub-table) was 19%, the Emax at 0.1667 ppm ([10]; K6105, read-out: % Efficacy, CtmC 0.1667 ppm alone (Streptimidone 0), lower sub-table) was 23% and the Emax at 0.1667 ppm ([10]; K6105, read-out: % Efficacy, CtmC 0.1667 ppm alone (Streptimidone 0), upper sub-table) was 61%. The Emax at 0.5 ppm ([10]; K6105, read-out: % Efficacy, CtmC 0.5000 ppm alone (Streptimidone 0), lower sub-table) was 47% and the Emax at 0.5 ppm ([10]; K6105, read-out: % Efficacy, CtmC 0.5000 ppm alone (Streptimidone 0), upper sub-table) was 78%.
